Measured values from patent EP0712936B1, “LOW-MOLECULAR DNA FROM STURGEON MILT, A METHOD OF OBTAINING THE DNA AND A PHARMACEUTICAL PREPARATION BASED ON IT” (NAUCHNO-PROIZVODSTVENNOE PREDPRIYATIE "FARMEK", priority 1993, dated 1994).
Like-named read-outs stand apart in the source and are kept apart here.

How the values were obtained:
[1] = tested on: nonlinear white mice
[2] = tested on: HIV; assay type: cell-based; conditions: comparison preparation, no ratio
Description: (§1) The antiviral activity of preparations was assessed by the methods recommended for this purpose by the World Health Organization (20, 21). For this purpose we used the cultures of inoculated cell lines SEM and MT-4. The cells were cultured at a concentration of (0.03-0.05)x10^6 cells per 1 ml of PPM1 1640 with 10-% fetal serum of calves, 300 mg/ml of glutamine, 100 mkg/ml of heptamicine and grown in the form of a suspension. The vital activity of cells was checked by coloring them with a 0.4-% solution of trypan blue. The virus sources were strains HIV/IVS and HIV - 1 HTLV/IIIB.
(§2) The suspension of cells was placed into 24-hole boards, treated with different doses of the preparation and infected with HIV. The multiplicity of infection was 0.01 TCD50 per cell. Then the cultures were incubated at 37 C in the atmosphere containing 5% CO2 at a moisture content of 98% for 5-7 days before determining the cytopathic effect of the virus on the cell culture.
A culture of inoculated cells, line CEMSS and MT-4 was used in the experiment. […]
(§3) Then the cultures were incubated at 37 C in the atmosphere containing 5% of CO at a moisture content of 98% for 5-7 days before determining the cytopathic effect of the virus on the cell culture. The formation of viral antigen was assessed by an immunofermental analysis.

[3] = tested on: HIV; experiment: anti-HIV activity at different modes of administration, quantity of syncytia; assay type: in vivo; conditions: placebo 100
[4] = tested on: HIV; assay type: cell-based; conditions: comparison preparation, no ratio; remark: listed apart in the source
Description: as §1, §2
The formation of viral antigen was assessed by immuno-fermental analysis.
as §3

Cc1cn([C@H]2C[C@H](N=[N+]=[N-])[C@@H](CO)O2)c(=O)[nH]c1=O [AZT (azidothymidine), 3-azi-3-desoxythymidine]
10%: Qty of syncytia, % ([3]; intracerebral)
0.091: Data of immuno-enzyme analysis, optical density [4]
75%: Qty of syncytia, % ([3]; intranasal)
6/6: quantity of survived mice / quantity of infected mice ([1]; intraabdominal, 5 mg/kg) | quantity of survived mice / quantity of infected mice ([1]; intraabdominal, 10 mg/kg) | quantity of survived mice / quantity of infected mice ([1]; intraabdominal, 20 mg/kg) | quantity of survived mice / quantity of infected mice ([1]; intraabdominal, 35 mg/kg) | quantity of survived mice / quantity of infected mice ([1]; intraabdominal, 50 mg/kg) | quantity of survived mice / quantity of infected mice ([1]; intraabdominal, 75 mg/kg) | quantity of survived mice / quantity of infected mice ([1]; intracerebral, 5 mg/kg) | quantity of survived mice / quantity of infected mice ([1]; intracerebral, 10 mg/kg) | quantity of survived mice / quantity of infected mice ([1]; intracerebral, 20 mg/kg) | quantity of survived mice / quantity of infected mice ([1]; intracerebral, 35 mg/kg) | quantity of survived mice / quantity of infected mice ([1]; intracerebral, 50 mg/kg) | quantity of survived mice / quantity of infected mice ([1]; intracerebral, 75 mg/kg) | quantity of survived mice / quantity of infected mice ([1]; intranasal, 5 mg/kg) | quantity of survived mice / quantity of infected mice ([1]; intranasal, 10 mg/kg) | quantity of survived mice / quantity of infected mice ([1]; intranasal, 20 mg/kg) | quantity of survived mice / quantity of infected mice ([1]; intranasal, 35 mg/kg) | quantity of survived mice / quantity of infected mice ([1]; intranasal, 50 mg/kg) | quantity of survived mice / quantity of infected mice ([1]; intranasal, 75 mg/kg) | quantity of survived mice / quantity of infected mice ([1]; subcutaneous, 5 mg/kg) | quantity of survived mice / quantity of infected mice ([1]; subcutaneous, 10 mg/kg) | quantity of survived mice / quantity of infected mice ([1]; subcutaneous, 20 mg/kg) | quantity of survived mice / quantity of infected mice ([1]; subcutaneous, 35 mg/kg) | quantity of survived mice / quantity of infected mice ([1]; subcutaneous, 50 mg/kg) | quantity of survived mice / quantity of infected mice ([1]; subcutaneous, 75 mg/kg)
8%: No of syncytia, % of virus control [2]
50%: mortality of mice ([1]; intracerebral introduction, doses from 10 to 50 mg/kg)
0.1 mg/mg: Data of immuno-enzyme analysis [4]
